Laboratory results as given in patent US20250163056A1, “NONMUSCLE MYOSIN II INHIBITORS” (The University of Florida Research Foundation, Inc., priority 2018, published 2025).

Experiments:
[1] = Photostability, percentage remaining undegraded under illumination or in the dark; settings: for Photostability 4 hours: percentage remaining undegraded after 4 hours illumination; for Photostability 24 hours: percentage remaining undegraded after 24 hours illumination; for Photostability Dark (24 h): percentage remaining undegraded in the dark
[2] = biological target: Rabbit skeletal myosin; test: Skeletal muscle myosin II actin-activated ATPase assay; type: biochemical; settings: 20 nM skeletal muscle myosin II; read-out: SKMMII KI
From the text: (§1) The cardiac muscle myosin II actin-activated ATPase assay is a biochemical assay. Specifically, it is an NADH (nicotinamide adenine dinucleotide)-coupled ATPase assay that relies on NADH fluorescence as a readout. Cardiac myosin is a mechanochemical energy transducer that hydrolyzes ATP to generate force in the presence of its activator, F-actin. The resulting ADP is regenerated to ATP by pyruvate kinase (PK) that transforms one molecule of phosphoenolpyruvate (PEP) to pyruvate in parallel. Subsequently, pyruvate is reduced to lactate by lactate dehydrogenase (LDH) that, in turn, oxidizes one molecule of NADH to NAD. Therefore, the decrease in NADH concentration as a function of time equals the ATP hydrolysis rate. Bovine cardiac myosin is obtained from a commercial source, Cytoskeleton. PK, LDH, ATP, PEP, and NADH are obtained from Sigma. F-actin is prepared in house from Rabbit Muscle Acetone Powder. The assay is run at 25° C. in 384 well black-wall polystyrene microplates with a total volume of 20 μl per well. NADH fluorescence is monitored for 30 minutes with an EnVision Multimode Plate Reader. The slope of the fluorescence response, which is proportional to the reaction rate, is determined by simple linear regression. Final assay conditions are 300 nM cardiac myosin, 10 μM actin, 40 U/ml LDH, 200 U/ml PK, 220 μM NADH, 1 mM PEP, 1 mM ATP in a buffer containing 10 mM 3-(N-morpholino)propanesulfonic acid (pH=7.0), 2 mM MgCl2, 0.15 mM ethylene glycol-bis(p-aminoethyl ether)-N,N,N′,N′-tetraacetic acid, 0.1 mg/mL bovine serum albumin, 0.5% (V/V) dimethyl sulfoxide (DMSO) and 1 mM dithiothreitol. Prior to testing the inhibitory activity of the compounds, a two-fold dilution series starting at 10 mM compound concentration is prepared in DMSO. Subsequently, 100 nl is transferred to each well of the measuring plate containing a mixture of myosin, LDH and PK. The enzymatic reaction is started with the addition of a mixture containing ATP, PEP, NADH and actin. The highest final compound concentration is 50 uM. 20 μM para-aminoblebbistatin in 0.5% DMSO serves as the positive control and 0.5% DMSO alone is the negative control. Reaction rates are determined by using the fluorescence responses of a dilution series of NADH included in all plates and plotted as a function of inhibitor concentration. All measurements are carried out in triplicate. Inhibitory constants are determined by fitting the 16 point dose-response data to a quadratic equation corresponding to a simple one-to-one binding model.
The skeletal muscle myosin II actin-activated ATPase assay is performed the same as for cardiac muscle myosin II with the following exceptions: Rabbit skeletal myosin is obtained from Cytoskeleton and the final assay conditions contain 20 nM skeletal muscle myosin II.

[3] = biological target: Bovine cardiac myosin (Bos taurus (Bovine), UniProt Q9BE39); test: Cardiac muscle myosin II actin-activated ATPase assay (NADH-coupled); type: biochemical; design: key to Ratio CMMII:NMII Ki/EC50: NMII-sel: no Ki value for cardiac myosin II could be determined; the compounds had no detectable inhibitory properties versus the cardiac myosin II; settings: for Ki: 300 nM cardiac myosin, 10 μM actin, 25° C., read-out: CMMII KI; for Ratio CMMII:NMII Ki/EC50: cardiac myosin II Ki over nonmuscle myosin II EC50
From the text: as §1

Bovine cardiac myosin, sequence (Q9BE39 whole entry): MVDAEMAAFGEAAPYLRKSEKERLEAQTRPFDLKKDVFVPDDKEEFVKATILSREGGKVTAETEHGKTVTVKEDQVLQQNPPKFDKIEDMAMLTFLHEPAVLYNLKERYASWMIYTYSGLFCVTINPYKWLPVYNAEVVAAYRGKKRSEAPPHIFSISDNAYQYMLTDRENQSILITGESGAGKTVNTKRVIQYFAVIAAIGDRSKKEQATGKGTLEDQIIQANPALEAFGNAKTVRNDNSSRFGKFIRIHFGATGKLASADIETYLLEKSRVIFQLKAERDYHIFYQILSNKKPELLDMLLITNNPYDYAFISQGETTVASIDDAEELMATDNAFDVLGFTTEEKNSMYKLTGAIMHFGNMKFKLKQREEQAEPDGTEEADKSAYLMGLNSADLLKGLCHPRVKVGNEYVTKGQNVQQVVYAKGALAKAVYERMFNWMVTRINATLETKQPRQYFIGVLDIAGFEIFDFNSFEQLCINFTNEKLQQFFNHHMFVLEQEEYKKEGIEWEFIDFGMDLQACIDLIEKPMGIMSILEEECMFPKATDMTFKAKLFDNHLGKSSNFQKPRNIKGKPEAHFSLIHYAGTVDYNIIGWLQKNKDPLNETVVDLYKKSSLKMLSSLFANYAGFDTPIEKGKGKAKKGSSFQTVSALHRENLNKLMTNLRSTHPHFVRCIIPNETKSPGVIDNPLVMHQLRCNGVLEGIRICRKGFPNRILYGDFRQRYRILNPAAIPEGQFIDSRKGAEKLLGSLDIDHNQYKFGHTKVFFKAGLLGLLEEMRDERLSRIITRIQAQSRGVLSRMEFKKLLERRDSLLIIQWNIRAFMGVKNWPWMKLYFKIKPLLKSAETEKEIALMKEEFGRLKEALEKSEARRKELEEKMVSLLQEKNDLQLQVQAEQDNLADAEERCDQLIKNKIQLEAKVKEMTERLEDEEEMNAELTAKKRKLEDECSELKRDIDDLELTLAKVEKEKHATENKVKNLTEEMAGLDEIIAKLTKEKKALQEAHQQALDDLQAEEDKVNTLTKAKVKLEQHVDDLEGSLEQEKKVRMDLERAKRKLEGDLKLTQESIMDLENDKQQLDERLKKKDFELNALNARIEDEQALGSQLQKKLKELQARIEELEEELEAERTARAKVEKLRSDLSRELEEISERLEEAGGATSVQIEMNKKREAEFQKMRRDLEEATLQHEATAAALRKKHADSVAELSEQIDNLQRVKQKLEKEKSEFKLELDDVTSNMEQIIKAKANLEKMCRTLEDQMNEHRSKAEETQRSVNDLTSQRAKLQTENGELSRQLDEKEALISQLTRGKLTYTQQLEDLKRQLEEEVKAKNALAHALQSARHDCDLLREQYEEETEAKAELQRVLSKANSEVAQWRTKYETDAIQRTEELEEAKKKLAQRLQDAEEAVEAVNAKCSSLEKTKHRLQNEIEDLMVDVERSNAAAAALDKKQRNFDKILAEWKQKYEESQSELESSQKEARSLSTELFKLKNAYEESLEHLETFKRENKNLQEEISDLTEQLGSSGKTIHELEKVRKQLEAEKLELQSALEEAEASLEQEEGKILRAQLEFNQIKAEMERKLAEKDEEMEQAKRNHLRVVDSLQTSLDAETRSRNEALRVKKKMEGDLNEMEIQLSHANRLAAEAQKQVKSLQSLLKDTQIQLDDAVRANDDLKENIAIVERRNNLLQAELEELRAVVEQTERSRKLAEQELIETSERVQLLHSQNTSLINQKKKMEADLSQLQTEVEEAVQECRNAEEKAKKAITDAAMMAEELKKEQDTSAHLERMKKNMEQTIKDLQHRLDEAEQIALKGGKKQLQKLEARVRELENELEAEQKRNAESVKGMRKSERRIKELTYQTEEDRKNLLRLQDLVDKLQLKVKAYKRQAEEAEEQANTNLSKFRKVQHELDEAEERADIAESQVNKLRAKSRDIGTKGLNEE
Bovine cardiac myosin, sequence (P85100 whole entry partner): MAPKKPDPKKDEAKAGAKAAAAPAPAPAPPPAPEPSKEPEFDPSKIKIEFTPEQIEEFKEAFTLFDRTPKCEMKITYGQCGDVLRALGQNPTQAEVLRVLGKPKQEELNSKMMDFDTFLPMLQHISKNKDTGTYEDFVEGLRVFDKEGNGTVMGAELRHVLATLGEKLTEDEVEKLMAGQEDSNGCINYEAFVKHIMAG
Bovine cardiac myosin, sequence (Q3SZE5 whole entry partner): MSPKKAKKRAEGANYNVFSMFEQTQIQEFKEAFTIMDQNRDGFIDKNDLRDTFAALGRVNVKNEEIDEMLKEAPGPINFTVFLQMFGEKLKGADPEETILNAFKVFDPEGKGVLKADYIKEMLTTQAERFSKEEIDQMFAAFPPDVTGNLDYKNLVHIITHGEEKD

Cc1cc2c(cc1C)C(=O)[C@]1(O)CCN(c3cnc(C#N)c(C)c3)C1=N2 [BPN-0028760]
Photostability 4 hours [1]: 87.9% | Photostability 24 hours [1]: 83% | Photostability Dark (24 h) [1]: 87.6% | Ki [2]: 0.94 µM | Ki [3]: 16 µM | Ratio CMMII:NMII Ki/EC50 [3]: 4.3

Cc1ccc2c(c1)C(=O)[C@]1(O)CCN(c3ccc4ccoc4c3)C1=N2 [BPN-0026285]
Photostability 4 hours [1]: 51.9% | Photostability 24 hours [1]: 8.2% | Photostability Dark (24 h) [1]: 94.7% | Ki [2]: 0.9 µM | Ki [3]: 9.1 µM | Ratio CMMII:NMII Ki/EC50 [3]: 5.7

Cc1cc2c(cc1C)C(=O)[C@]1(O)CCN(c3cccc(Br)c3)C1=N2 [BPN-0026660]
Photostability 4 hours [1]: 87.4% | Photostability 24 hours [1]: 7.6% | Photostability Dark (24 h) [1]: 93.8% | Ki [2]: 33 µM | Ratio CMMII:NMII Ki/EC50 [3]: NMII-sel

Cc1cc2c(cc1C)C(=O)[C@]1(O)CCN(c3cnc(C)c(C)c3)C1=N2 [BPN-0028731]
Photostability 4 hours [1]: 37.6% | Photostability 24 hours [1]: 7.4% | Photostability Dark (24 h) [1]: >99% | Ki [2]: 2.2 µM | Ki [3]: 40 µM | Ratio CMMII:NMII Ki/EC50 [3]: 7.7

Cc1cc2c(s1)C(=O)[C@]1(O)CCN(c3ccc(C#N)c(C)c3)C1=N2 [BPN-0027072]
Photostability 4 hours [1]: >99% | Photostability 24 hours [1]: >99% | Photostability Dark (24 h) [1]: >99% | Ki [2]: 5 µM | Ki [3]: 31 µM | Ratio CMMII:NMII Ki/EC50 [3]: 3.1

Cc1ccc2c(c1)C(=O)[C@]1(O)CCN(c3ccc4occc4c3)C1=N2 [BPN-0026283]
Photostability 4 hours [1]: 39.4% | Photostability 24 hours [1]: 10.8% | Photostability Dark (24 h) [1]: 92.0% | Ki [2]: 5 µM | Ratio CMMII:NMII Ki/EC50 [3]: NMII-sel

Cc1cc2c(cc1C)C(=O)[C@]1(O)CCN(c3cnn(C)c3)C1=N2 [BPN-0026710]
Photostability 4 hours [1]: 6.6% | Photostability 24 hours [1]: <1% | Photostability Dark (24 h) [1]: >99% | Ki [2]: 0.95 µM | Ki [3]: 5.2 µM | Ratio CMMII:NMII Ki/EC50 [3]: 3.1

Cc1cc2c(s1)N=C1N(c3ccc(C#N)c(Cl)c3)CC[C@@]1(O)C2=O [BPN-0027257]
Photostability 4 hours [1]: 97.0% | Photostability 24 hours [1]: 78.0% | Photostability Dark (24 h) [1]: 97.4% | Ki [2]: 4.2 µM | Ki [3]: 40 µM | Ratio CMMII:NMII Ki/EC50 [3]: 6.8

COc1ccc(N2CC[C@@]3(O)C(=O)c4cc(C)c(C)cc4N=C23)cc1 [BPN-0026665]
Photostability 4 hours [1]: 2.7% | Photostability 24 hours [1]: <1% | Photostability Dark (24 h) [1]: 97.4% | Ki [2]: 0.14 µM | Ki [3]: 4.2 µM | Ratio CMMII:NMII Ki/EC50 [3]: 6.7

Cc1ccc2c(c1)C(=O)[C@]1(O)CCN(c3ccc(C)c(C)c3)C1=N2 [BPN-0025903]
Photostability 4 hours [1]: 39.8% | Photostability 24 hours [1]: 7.5% | Photostability Dark (24 h) [1]: 98.3% | Ki [2]: 11 µM | Ratio CMMII:NMII Ki/EC50 [3]: NMII-sel

Cc1ccc2c(c1)C(=O)[C@]1(O)CCN(c3ccc4nccnc4c3)C1=N2 [BPN-0027330]
Photostability 4 hours [1]: 92.7% | Photostability 24 hours [1]: 64.6% | Photostability Dark (24 h) [1]: >99% | Ki [2]: 4.2 µM | Ki [3]: 80 µM | Ratio CMMII:NMII Ki/EC50 [3]: 8.0

COc1cc(N2CC[C@@]3(O)C(=O)c4cc(C(F)(F)F)ccc4N=C23)ccn1 [BPN-0026533]
Photostability 4 hours [1]: 87.7% | Photostability 24 hours [1]: 6.4% | Photostability Dark (24 h) [1]: 91.7% | Ki [2]: 60 µM | Ratio CMMII:NMII Ki/EC50 [3]: NMII-sel

Cc1cc2c(cc1C)C(=O)[C@]1(O)CCN(c3ccc4scnc4c3)C1=N2 [BPN-0027121]
Photostability 4 hours [1]: 75.6% | Photostability 24 hours [1]: 6.5% | Photostability Dark (24 h) [1]: 98.6% | Ki [2]: 2.7 µM | Ki [3]: 19 µM | Ratio CMMII:NMII Ki/EC50 [3]: 7.6

Cc1ccc2c(c1)C(=O)[C@]1(O)CCN(c3ccc4ccsc4c3)C1=N2 [BPN-0026650]
Photostability 4 hours [1]: 80.5% | Photostability 24 hours [1]: 5.5% | Photostability Dark (24 h) [1]: >99% | Ki [2]: 4.3 µM | Ratio CMMII:NMII Ki/EC50 [3]: NMII-sel

Cc1cc2c(cc1C)C(=O)[C@]1(O)CCN(c3ccc4ncc(CO)cc4c3)C1=N2 [BPN-0028736]
Photostability 4 hours [1]: 64% | Photostability 24 hours [1]: 2% | Photostability Dark (24 h) [1]: 95.3% | Ki [2]: 1.5 µM | Ki [3]: 90 µM | Ratio CMMII:NMII Ki/EC50 [3]: 6.9

COc1ccc(N2CC[C@@]3(O)C(=O)c4c(sc(C)c4C)N=C23)cc1 [BPN-0026813]
Photostability 4 hours [1]: 82.0% | Photostability 24 hours [1]: <1% | Photostability Dark (24 h) [1]: >99% | Ki [2]: 0.11 µM | Ki [3]: 1.6 µM | Ratio CMMII:NMII Ki/EC50 [3]: 3.1

Cc1cc2c(cc1C)C(=O)[C@]1(O)CCN(c3cccs3)C1=N2 [BPN-0026708]
Photostability 4 hours [1]: 40.7% | Photostability 24 hours [1]: <1% | Photostability Dark (24 h) [1]: >99% | Ki [2]: 1.4 µM | Ki [3]: 5.3 µM | Ratio CMMII:NMII Ki/EC50 [3]: 3.1

COc1cc(N2CC[C@@]3(O)C(=O)c4cc(C)c(C)cc4N=C23)ccn1 [BPN-0026709]
Photostability 4 hours [1]: 98.7% | Photostability 24 hours [1]: 93.0% | Photostability Dark (24 h) [1]: 98.2% | Ki [2]: 1.3 µM | Ki [3]: 30.6 µM | Ratio CMMII:NMII Ki/EC50 [3]: 25.5

O=C1c2c(sc3ccccc23)N=C2N(c3ccccc3)CC[C@@]12O [BPN-0026785]
Photostability 4 hours [1]: 95.8% | Photostability 24 hours [1]: 59.3% | Photostability Dark (24 h) [1]: 91.6% | Ki [2]: 5.9 µM | Ki [3]: 23 µM | Ratio CMMII:NMII Ki/EC50 [3]: 3.1

Cc1cc2cc(N3CC[C@@]4(O)C(=O)c5cc(F)c(C)cc5N=C34)ccc2o1 [BPN-0026726]
Photostability 4 hours [1]: 76.3% | Photostability 24 hours [1]: 24.1% | Photostability Dark (24 h) [1]: 95.4% | Ki [2]: 4.4 µM | Ratio CMMII:NMII Ki/EC50 [3]: NMII-sel

Cc1ccc2c(c1)C(=O)[C@]1(O)CCN(c3ccc4ncsc4c3)C1=N2 [BPN-0027036]
Photostability 4 hours [1]: 90.2% | Photostability 24 hours [1]: 24.7% | Photostability Dark (24 h) [1]: 97.4% | Ki [2]: 4.9 µM | Ki [3]: 22 µM | Ratio CMMII:NMII Ki/EC50 [3]: 7.3

CCc1cc2c(s1)N=C1N(c3ccc(Cl)cc3)CC[C@@]1(O)C2=O [BPN-0026770]
Photostability 4 hours [1]: >99% | Photostability 24 hours [1]: 92.9% | Photostability Dark (24 h) [1]: >99% | Ki [2]: 1.5 µM | Ratio CMMII:NMII Ki/EC50 [3]: NMII-sel

Cc1ccc2c(c1)C(=O)[C@]1(O)CCN(c3ccc(CO)c(Cl)c3)C1=N2 [BPN-0027163]
Photostability 4 hours [1]: 95.0% | Photostability 24 hours [1]: 44.6% | Photostability Dark (24 h) [1]: >99% | Ki [2]: 5.9 µM | Ki [3]: 21 µM | Ratio CMMII:NMII Ki/EC50 [3]: 5.0

Cc1ccc2c(c1)C(=O)[C@]1(O)CCN(c3ccc4sccc4c3)C1=N2 [BPN-0026651]
Photostability 4 hours [1]: 73.0% | Photostability 24 hours [1]: 5.8% | Photostability Dark (24 h) [1]: 97.5% | Ki [2]: 3.9 µM | Ratio CMMII:NMII Ki/EC50 [3]: NMII-sel

Cc1ccc2c(c1)C(=O)[C@]1(O)CCN(c3cc4ncccc4s3)C1=N2 [BPN-0027468]
Photostability 4 hours [1]: 83.3% | Photostability 24 hours [1]: 77.5% | Photostability Dark (24 h) [1]: 98.3% | Ki [2]: 1.2 µM | Ratio CMMII:NMII Ki/EC50 [3]: NMII-sel

Cc1ncc(N2CC[C@@]3(O)C(=O)c4cc(C)c(C)cc4N=C23)s1 [BPN-0026693]
Photostability 4 hours [1]: 34.1% | Photostability 24 hours [1]: 1.7% | Photostability Dark (24 h) [1]: >99% | Ki [2]: 0.27 µM | Ki [3]: 3.5 µM | Ratio CMMII:NMII Ki/EC50 [3]: 6.0

Cc1ccc2cc(N3CC[C@@]4(O)C(=O)c5sc(C)cc5N=C34)ccc2n1 [BPN-0028863]
Photostability 4 hours [1]: 98.8% | Photostability 24 hours [1]: 94.7% | Photostability Dark (24 h) [1]: 99% | Ki [2]: 2.8 µM | Ratio CMMII:NMII Ki/EC50 [3]: NMII-sel

Cc1cc2c(cc1F)C(=O)[C@]1(O)CCN(c3ccc4ncsc4c3)C1=N2 [BPN-0027196]
Photostability 4 hours [1]: 94.9% | Photostability 24 hours [1]: 7.1% | Photostability Dark (24 h) [1]: >99% | Ki [2]: 12 µM | Ratio CMMII:NMII Ki/EC50 [3]: NMII-sel
